Reference: PubChem BioAssay AID1963842 (Molecular Pharmacology Branch, DTP, NCI, 2024)
Values joined by “and” are separate entries in the source; they are usually repeats but may differ in a detail not shown here. Equal entries are not always repeated.

Test system: 677734-321-R-J1-PDC complex spheroid viability
Assay: Anticancer human tumor 677734-321-R-J1-PDC patient-derived soft tissue sarcoma cell line growth inhibition [POLQ]
Settings: for viability, T/C: stronger effect = lower value; for IC50: curve of compound
Procedure: Multicellular complex tumor spheroid response to Polymerase (POL) inhibitors (novobiocin, ART-558, RP6685) in combination with a variety of drugs and investigational agents in selected tumor cell lines
The POL inhibitors (novobiocin, ART-558, and RP6685) were evaluated both individually and in combination with standard of care and investigational anticancer small molecules within a complex spheroid model of solid tumors. . Complex spheroids include a stromal component modeled by human endothelial cells (HUVEC) and fibroblasts modeled by human mesenchymal stem cells (MSCs). The concentration ranges selected for each drug and investigational agent were based upon clinically achievable concentrations if the clinical Cmax of the agent was known.
Compounds. The drugs and investigational agents: novobiocin (NSC847541), ART-558 (NSC835418), RP-6685 (NSC848927), peposertib (NSC802822), ceralasertib (NSC780249), elimusertib (NSC800525), camonsertib (NSC841442), AZD-1390 (NSC803789), olaparib (NSC753686), talazoparib (NSC767125), rucaparib (NSC756644), sotorasib (NSC818433), MRTX-1133 (NSC836407), SN-38 (NSC673596), topotecan (NSC609699), epotoside (NSC141540), doxorubicin (NSC123127), gemcitabine (NSC613327), 5-fluorouracil (NSC19893), paclitaxel (NSC125973), vemurafenib (NSC761431), MSA-2 (NSC828583), SN-011 (NSC837082), adavosertib (NSC754352), prexasertib (NSC758257), carboplatin (NSC241240) and oxaliplatin (NSC266046), were obtained from the National Cancer Institute (NCI) Developmental Therapeutics Program Chemical Repository (21). The FDA-approved anticancer drug set is available from the Developmental Therapeutics Program at https://dtp.cancer.gov/organization/dscb/obtaining/. […] The stock solutions were prepared in dimethyl sulfoxide (DMSO, Sigma-Aldrich, St. Louis, MO, cat. D2650), except for the platinum compounds which were prepared in saline (Quality Biological, Gaithersburg, MD, cat. 114-055-101), at 800-fold the tested concentration and stored at -70 degrees C prior to their use. All drugs and investigational agents were tested over a range starting from a high concentration at or near the clinical Cmax and decreasing in half-log increments. If the clinical Cmax for an agent had not been determined, the highest concentration tested was 10 microM, except for SN-38, which was tested at a high concentration of 1 microM.
Cell Culture. All cells were maintained in an incubator at 37 degrees C and 5% CO2 with 95% humidity. The PDC lines were cultured according to standard operating procedures established by the NCI PDMR (https://pdmr.cancer.gov). Table 3 of the manuscript, lists the cell lines along with the number of the three cell types plated to form the mct-spheroids and media for tumor cell growth. After thawing, all PDC lines, except 997537-175-T-J1-PDC and 415267-285-R-J2-PDC, were cultured in Matrigel-coated flasks prepared with a working solution of 1X Ham's F-12 nutrient mix, without supplementation (Thermo Fisher Scientific, cat. 11765054), 100 U/mL penicillin-streptomycin (Thermo Fisher Scientific, cat. 15140122), and 2.5% Matrigel (Corning Inc., Corning, NY, cat. 354248) for the first three passages. The two PDC lines 997537-175-T-J1-PDC and 415267-285-R-J2-PDC were cultured on uncoated flasks. The 857933-349-R-J2-PDC line was cultured in 6C/Colon 1B media containing advanced DMEM/F-12 (Thermo Fisher Scientific, cat. 12634028), 10 mM HEPES (Thermo Fisher Scientific, cat. 15630080), 1X GlutaMAX supplement (Thermo Fisher Scientific, cat. 35050061), 0.1 mg/mL primocin (InvivoGen, San Diego, CA, cat. ant-pm-2), 10% defined fetal bovine serum, heat inactivated (HyClone Laboratories Inc., Logan, UT, cat. SH30070.03HI), 50% L-WRN conditioned media (ATCC, cat. CRL-3276), 1.25 mM N-Acetyl-L-cysteine (Sigma-Aldrich, cat. A9165), 10 mM nicotinamide (Sigma-Aldrich, cat. N0636), 1X B-27 supplement (Thermo Fisher Scientific, cat. 17504044), 1X N-2 supplement (Thermo Fisher Scientific, cat. […]
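Note: spheroids exposed to compounds for one week.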
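Throughout, for viability, T/C: 100% = vehicle DMSO treated spheroids.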

Row | SMILES | viability, T/C (compound 0.0316 µM) | viability, T/C (compound 0.1 µM) | viability, T/C (compound 0.316 µM) | viability, T/C (compound 1 µM) | viability, T/C (compound 3.16 µM) | viability, T/C (compound 10 µM) | IC50 | viability, T/C (compound 0.00316 µM) | viability, T/C (compound 0.01 µM) | viability, T/C (compound 0.00949 µM) | viability, T/C (compound 0.03 µM) | viability, T/C (compound 0.0949 µM) | viability, T/C (compound 0.3 µM) | viability, T/C (compound 0.949 µM) | viability, T/C (compound 3 µM) | viability, T/C (compound 0.000316 µM) | viability, T/C (compound 0.001 µM)
1 | C#Cc1c(F)ccc2cc(O)cc(-c3ncc4c(N5CC6CCC(C5)N6)nc(OCC56CCCN5CC(F)C6)nc4c3F)c12 (centres undefined) | 109% and 110% and 105% | 105% and 104% and 101% | 99.2% and 115% and 96.7% | 105% and 96.8% and 101% | 107% and 113% and 97.8% | 102% (2×) and 80.7% | > 10000 nM |  |  |  |  |  |  |  |  |  | 
2 | C=CC(=O)N1CCN(c2nc(=O)n(-c3c(C)ccnc3C(C)C)c3nc(-c4c(O)cccc4F)c(F)cc23)C(C)C1 (centres undefined) | 100% and 109% and 106% | 95.8% and 94.2% and 95.4% | 117% and 96.4% and 105% | 101% and 104% and 95.6% | 96.5% and 93.2% and 101% | 89% and 64% and 94.1% | > 10000 nM |  |  |  |  |  |  |  |  |  | 
3 | C=CCn1c(=O)c2cnc(Nc3ccc(N4CCN(C)CC4)cc3)nc2n1-c1cccc(C(C)(C)O)n1 | 105% and 97.8% and 107% | 103% and 90.1% and 87.8% | 103% and 74.6% and 85.4% | 64.8% and 36% and 39% |  |  | > 1000 nM and 657 nM and 753 nM | 109% and 100% and 106% | 115% and 89.1% and 99% |  |  |  |  |  |  |  | 
4 | CC(=O)O[C@H]1C(=O)[C@@]2(C)[C@H]([C@H](OC(=O)c3ccccc3)[C@]3(O)C[C@H](OC(=O)[C@H](O)[C@@H](NC(=O)c4ccccc4)c4ccccc4)C(C)=C1C3(C)C)[C@]1(OC(C)=O)CO[C@@H]1C[C@@H]2O |  |  |  |  |  |  | < 9.49 nM |  |  | 22% and 35.2% and 37.8% | 13.4% and 15.2% and 19.2% | 12.7% and 15.9% and 17.6% | 11.9% and 12.5% and 14.8% | 14.2% and 12.4% and 14.5% | 13.1% and 16.4% (2×) |  | 
5 | CC(C)n1c(=O)n(C)c2cnc3cc(F)c(-c4ccc(OCCCN5CCCCC5)nc4)cc3c21 | 104% and 96.1% and 15.7% | 97.3% and 81.5% and 19.8% | 111% and 83.6% and 12.2% | 99.2% and 101% and 14.6% | 101% and 85.8% and 17.6% | 91% and 102% and 18.9% |  |  |  |  |  |  |  |  |  |  | 
6 | CC1COCCN1c1cc(-c2ccnn2C)c2ccnc(-c3ccn[nH]3)c2n1 (centres undefined) | 91.4% and 85.5% and 69.4% | 60.5% and 56.2% and 22.1% |  | 24.4% and 21.4% and 10.8% | 19.7% and 6.39% and 9.44% | 18.5% and 17.1% and 9.19% | 164 nM and 124 nM and 50.6 nM |  |  |  |  |  |  |  |  |  | 
7 | CC1COCCN1c1cc(C2(O)CC3CCC(C2)O3)c2cnn(-c3ccn[nH]3)c2n1 (centres undefined) | 81.7% and 83.6% and 51% | 51.1% and 44.5% and 17.5% | 25.6% and 22.2% and 9.65% | 20.1% and 15.7% and 9.53% | 17.1% and 14.3% and 7.61% | 17.9% and 14.2% and 4.79% | 105 nM and 85.1 nM and 32.4 nM |  |  |  |  |  |  |  |  |  | 
8 | CC1COCCN1c1cc(C2(S(C)(=N)=O)CC2)nc(-c2ccnc3[nH]ccc23)n1 (centres undefined) | 109% and 103% and 113% | 97.4% and 99.3% and 104% | 92% and 80.2% and 107% | 86.7% and 51.1% and 86.6% | 60.8% and 28.3% and 55.8% | 21.6% and 9.59% and 22.4% | 4390 nM and 1130 nM and 3830 nM |  |  |  |  |  |  |  |  |  | 
9 | CCCS(=O)(=O)Nc1ccc(F)c(C(=O)c2c[nH]c3ncc(-c4ccc(Cl)cc4)cc23)c1F | 109% and 98.3% and 104% | 98% (2×) and 103% | 90.9% and 101% and 108% | 97.4% and 115% and 111% | 71.8% and 98.3% and 112% | 4.28% and 6.33% and 14.5% | 4610 nM and 5800 nM and 6450 nM |  |  |  |  |  |  |  |  |  | 
10 | CC[C@@]1(O)C(=O)OCc2c1cc1n(c2=O)Cc2cc3c(CN(C)C)c(O)ccc3nc2-1 | 46.4% and 25.9% and 36.8% | 18% and 13.8% and 15% |  |  |  |  | 29.2 nM and 19.4 nM and 24.8 nM | 105% and 100% and 109% | 98.2% and 82.6% and 99.5% |  |  |  |  |  |  | 104% (2×) and 105% | 111% and 90.9% and 101%
11 | CCc1c2c(nc3ccc(O)cc13)-c1cc3c(c(=O)n1C2)COC(=O)[C@]3(O)CC | 5.51% and 5.68% and 5.45% | 3.41% and 4.83% and 3.66% | 1.89% and 3.99% | 1.68% and 1.7% and 1.87% |  |  | < 3.16 nM | 29.6% and 21.7% and 23.7% | 13.3% and 10.5% and 14.2% |  |  |  |  |  |  |  | 
12 | CCc1cc2c(N3CCc4c(cc(Cn5ccnc5)cc4-c4cn(C)nc4C(F)(F)F)C3=O)cc(C)nc2c(OC)n1 | 108% and 84.9% and 95.3% | 104% and 93.7% and 115% | 100% and 83.8% and 86.7% | 85.4% and 79.7% and 96.4% | 76.5% and 55.1% and 70.1% | 56.7% and 37.7% and 41.4% | > 10000 nM and 4460 nM and 7110 nM |  |  |  |  |  |  |  |  |  | 
13 | CCc1cc2c(N3CCc4c(cc(Cn5ccnc5)cc4-c4cn(C)nc4C(F)(F)F)C3=O)ccnc2c(OC)n1 | 108% and 98.5% and 105% | 109% (2×) and 102% | 98% and 85.5% and 106% | 100% and 93.7% and 73.7% | 92.4% and 69% and 64.4% | 63.6% and 50.2% and 39.2% | > 10000 nM and 5580 nM |  |  |  |  |  |  |  |  |  | 
